Experimental data reported in publication PMC9728226, “Suppressive Effects of a Truncated Inhibitor K562 Protein-Derived Peptide on Two Proinflammatory Cytokines, IL-17 and TNF-α” (Journal of Microbiology and Biotechnology, 2020).
Peptide text beside a SMILES is read from it.

What was measured:
[1] = tested on: Th17 cell differentiation (mouse IL-17); assay type: cell-based; conditions: 1.0 μg/ml; second experiment (Fig. 3B), control 0.1% DMSO; IL-17 ELISA; mean of n = 3
Description: Naïve CD4^+ T cells were isolated from the spleen of wild-type Balb/c mice via magnetic-activated cell sorting using a CD4^+ T Cell Isolation Kit (Miltenyi Biotec, Germany), in accordance with the manufacturer’s instructions. The RPMI medium for stimulating Th17 cell differentiation included 10 μg/ml anti-CD3 (eBioscience, USA), 1.5 μg/ml anti-CD28 (eBioscience), 5 ng/ml transforming growth factor-β (R&D Systems, USA), and 20 ng/ml IL-6 (BioLegend, USA). After cells had been cultured in this conditioned medium for 2 days at 37°C, 100 μl of the supernatant was analyzed for mouse IL-17 (mIL-17) using an IL-17-specific enzyme-linked immunosorbent assay (ELISA). All tests were repeated three times independently, and the means and standard deviations (SDs) from three tests were calculated.

[2] = tested on: mTNF-α secretion by J774A.1 cells; test: mTNF-α secretion by LPS-stimulated J774A.1 cells, ELISA; assay type: cell-based, mouse; conditions: 24 h, mean of n = 3; for inhibition of mTNF-α: J774A.1 cells, 100 ng/ml LPS, Fig. 3D
Description: The murine monocyte/macrophage cell line J774A.1 was obtained from the American Type Culture Collection (ATCC, USA), grown in Dulbecco’s modified Eagle’s medium (Gibco Laboratories, USA), and cultured at 37°C in humidified 5% CO2. The culture medium was supplemented with 10% fetal bovine serum and 2 mM glutamine. The cells were seeded into 24-well culture plates at a density of 1 × 10^5/ml and allowed to adhere overnight. Thereafter, the medium was replaced with fresh medium. The cells were pre-treated with DMS or a peptide (P1, P2, P3, P4, or P4S) and then stimulated with 100 ng/ml of lipopolysaccharide (LPS). Supernatants were collected after 24 h and stored at -20°C. Concentrations of mouse TNF-α (mTNF-α) were measured using ELISA (Mouse TNF-α DuoSet ELISA Kit; R&D Systems Europe, UK) according to the manufacturer’s instructions. All tests were repeated three times independently, and the results are expressed as means ± SDs.

Compound	inhibition of mIL-17 [1]	inhibition rate against mTNF-α ([2]; 1 μg/ml, J774A.1 cells pre-treated, then 100 ng/ml LPS, vs LPS-only group, Fig. 3C)	inhibition of mTNF-α ([2]; 0.1 μg/ml)	inhibition of mTNF-α ([2]; 1.0 μg/ml)
CSCC[C@H](NC(=O)[C@H](CC(=O)O)NC(=O)[C@H](CC(=O)O)NC(=O)[C@H](CCSC)NC(=O)[C@@H](NC(=O)[C@H](C)NC(=O)[C@@H]1CCCN1C(=O)[C@@H](N)Cc1ccc(O)cc1)[C@@H](C)O)C(=O)N[C@@H](C)C(=O)N[C@H](C(=O)N[C@@H](CC(=O)O)C(=O)N[C@@H](CO)C(=O)N[C@@H](CC(=O)O)C(=O)N[C@@H](CCC(=O)O)C(=O)N[C@@H](CCC(=O)O)C(=O)N[C@H](C(=O)N[C@@H](CC(=O)O)C(=O)N[C@@H](Cc1ccc(O)cc1)C(=O)O)C(C)C)C(C)C [P4] (H-YPATMDDMAVDSDEEVDY-OH; N-terminus and C-terminus assumed)	42.4%	50.2%	–	–
YPATMDDMA [P4S, 9-mer human tIK-derived peptide, fragment homolog of P4]	43.8%	–	45.5%	50.7%
